Data reported in ChEMBL document CHEMBL6092221, “Discovery of a Novel Macrocyclic Noncovalent CDK7 Inhibitor for Cancer Therapy” (J Med Chem, 2024).

Key:
[1] = Plasma protein binding in mouse assessed as unbound fraction; assay type: ADME, cell-free
[2] = Cmax in human OVCAR-3 cells xenografted in female Balb/c nude mouse plasma at 20 mg/kg, po administered once daily; assay type: ADME, organism-based
[3] = Cmax in human OVCAR-3 cells xenografted in female Balb/c nude mouse plasma at 5 mg/kg, po administered once daily; assay type: ADME, organism-based
[4] = Cmax in mouse at 5 mg/kg, po; assay type: ADME, organism-based; settings: in vivo
[5] = Volume of distribution at steady state in mouse at 1 mg/kg, iv; assay type: ADME, organism-based; settings: in vivo, read-out: Vdss
[6] = target: Cyclin-dependent kinase 7/ cyclin H (Homo sapiens, UniProt P50613); assay: Binding affinity to CDK7/CyclinH (unknown origin) assessed as dissociation constant by SPR assay; assay type: protein-complex assay
[7] = AUC(0 to t) in mouse at 5 mg/kg, po; assay type: ADME, organism-based; settings: in vivo
[8] = Half life in human OVCAR-3 cells xenografted in female Balb/c nude mouse plasma at 10 mg/kg, po administered once daily; assay type: ADME, organism-based
OVCAR-3 [9] = assay: Antitumor activity against human OVCAR-3 cells xenografted in female Balb/c nude mouse assessed as tumor growth inhibition at 2 mg/kg, po administered once daily and measured on day 22; assay type: functional; settings: OVCAR-3, 528 h, time 22 day, read-out: TGI
[10] = AUC(0 to t) in rat at 1 mg/kg, iv; assay type: ADME, organism-based; settings: in vivo
[11] = AUC(0 to t) in rat at 5 mg/kg, po; assay type: ADME, organism-based; settings: in vivo
[12] = Half life in human OVCAR-3 cells xenografted in female Balb/c nude mouse plasma at 5 mg/kg, po administered once daily; assay type: ADME, organism-based
[13] = Metabolic stability in rat liver microsomes assessed as intrinsic clearance; assay type: ADME, Microsome; settings: read-out: CLH
[14] = target: Cyclin-dependent kinase 4/cyclin D1 (Homo sapiens, UniProt P11802); assay: Inhibition of CDK4/CyclinD1 (unknown origin); assay type: protein-complex assay
Mus musculus = assay: Downregulation of Myc protein in female Balb/c nude mouse xenografted with human HCC70 cells administered once daily for 7 days; assay type: functional; settings: dose 2-10 mg/kg, time 7.0 day
[15] = target: Homeodomain-interacting protein kinase 4 (Homo sapiens) (UniProt Q8NE63); assay: Inhibition of HIPK4 (unknown origin) at 200 nM relative to control; values are per cent of control
[16] = AUC(0 to t) in human HCC70 cells xenografted in female nu/nu mouse plasma at 10 mg/kg, po administered once daily; assay type: ADME, organism-based
[17] = Metabolic stability in human liver microsomes assessed as intrinsic clearance; assay type: ADME, Microsome; settings: read-out: CLH
Cytochrome P450 2C9 = Cytochrome P450 2C9 (Homo sapiens, UniProt P11712); assay: Inhibition of CYP2C9 (unknown origin); assay type: ADME
[18] = Drug concentration in rat small intestine at 5 mg/kg, po measured after 0.5 hrs; assay type: ADME, organism-based; settings: read-out: Ct
[19] = Volume of distribution at steady state in female Balb/c nude mouse at 1 mg/kg, iv; assay type: ADME, organism-based; settings: in vivo, read-out: Vdss
[20] = Cmax in rat at 5 mg/kg, po; assay type: ADME, organism-based; settings: in vivo
[21] = Drug concentration in rat plasma at 5 mg/kg, po measured after 8 hrs; assay type: ADME, organism-based
[22] = Plasma stability in human assessed as half life; assay type: ADME, cell-free
CDK4/Cyclin D3 = CDK4/Cyclin D3 (Homo sapiens, UniProt P11802); assay: Inhibition of CDK4/Cyclin D3 (unknown origin); assay type: protein-complex assay
[23] = Clearance in dog at 0.2 mg/kg, iv; assay type: ADME, organism-based, Canis lupus familiaris; settings: in vivo
[24] = Half life in female Balb/c nude mouse at 5 mg/kg, po; assay type: ADME, organism-based; settings: in vivo
[25] = Metabolic stability in mouse liver microsomes assessed as intrinsic clearance; assay type: ADME, Microsome; settings: read-out: CLH
[26] = Cmax in dog at 2 mg/kg, po; assay type: ADME, organism-based, Canis lupus familiaris; settings: in vivo
[27] = Oral bioavailability in female Balb/c nude mouse at 5 mg/kg; assay type: ADME, organism-based; settings: in vivo
HCC70 [28] = assay: Antitumor activity against human HCC70 cells xenografted in female nu/nu mouse assessed as tumor growth inhibition at 10 mg/kg, po administered once daily and measured for 4 weeks; assay type: functional; settings: HCC70, 672 h, read-out: TGI
[29] = Half life in Sprague-Dawley rat at 30 mg/kg, po; assay type: ADME, organism-based; settings: in vivo
[30] = AUC(0 to t) in human HCC70 cells xenografted in female nu/nu mouse plasma at 1 mg/kg, po administered once daily; assay type: ADME, organism-based
[31] = target: Serine/threonine-protein kinase TAO1 (Homo sapiens, UniProt Q7L7X3); assay: Inhibition of TAOK1 (unknown origin)
[32] = target: Cyclin-Y/Cyclin-dependent kinase 16 (Homo sapiens) (UniProt Q00536+Q8ND76); assay: Inhibition of CDK16/CyclinY (unknown origin) at 200 nM relative to control; values are per cent of control
[33] = target: Cyclin-dependent kinase 4/cyclin D1 (Homo sapiens) (UniProt P11802+P24385); assay: Inhibition of CDK4/CyclinD1 (unknown origin) at 200 nM relative to control; values are per cent of control
[34] = target: Voltage-gated inwardly rectifying potassium channel KCNH2 (Homo sapiens, UniProt Q12809); assay: Inhibition of hERG; assay type: toxicity
[35] = Drug concentration in rat small intestine at 5 mg/kg, po measured after 2 hrs; assay type: ADME, organism-based; settings: read-out: Ct
Cytochrome P450 3A4 = Cytochrome P450 3A4 (Homo sapiens, UniProt P08684); assay: Inhibition of CYP3A4 (unknown origin); assay type: ADME
[36] = target: Ribosomal protein S6 kinase alpha-3 (Homo sapiens, UniProt P51812); assay: Inhibition of RSK2 (unknown origin)
[37] = Half life in rat at 1 mg/kg, iv; assay type: ADME, organism-based; settings: in vivo
[38] = Half life in dog at 0.2 mg/kg, iv; assay type: ADME, organism-based, Canis lupus familiaris; settings: in vivo
[39] = Half life in human HCC70 cells xenografted in female nu/nu mouse plasma at 10 mg/kg, po administered once daily; assay type: ADME, organism-based
[40] = Toxicity in female Balb/c nude mouse xenografted with human OVCAR-3 cells assessed as body weight loss at 2 to 20 mg/kg, po administered once daily and measured for 3 weeks; assay type: organism-based; settings: in vivo, 504 h, dose 2-20 mg/kg
[41] = AUC (0 to t) in human OVCAR-3 cells xenografted in female Balb/c nude mouse plasma at 10 mg/kg, po administered once daily; assay type: ADME, organism-based
HCC70 [42] = assay: Antitumor activity against human HCC70 cells xenografted in female nu/nu mouse assessed as tumor growth inhibition at 1 mg/kg, po administered once daily and measured for 4 weeks; assay type: functional; settings: HCC70, 672 h, read-out: TGI
[43] = Clearance in mouse at 1 mg/kg, iv; assay type: ADME, organism-based; settings: in vivo
OVCAR-3 [44] = assay: Antitumor activity against human OVCAR-3 cells xenografted in female Balb/c nude mouse assessed as tumor growth inhibition at 10 mg/kg, po administered once daily and measured on day 22; assay type: functional; settings: OVCAR-3, 528 h, time 22 day, read-out: TGI
[45] = AUC(0 to 48 hrs) in Sprague-Dawley rat at 300 mg/kg, po; assay type: ADME, organism-based; settings: in vivo
[46] = Cmax in human OVCAR-3 cells xenografted in female Balb/c nude mouse plasma at 10 mg/kg, po administered once daily; assay type: ADME, organism-based
[47] = Plasma protein binding in human assessed as unbound fraction; assay type: ADME, cell-free

Sequence of Cytochrome P450 2C9 (P11712 whole entry): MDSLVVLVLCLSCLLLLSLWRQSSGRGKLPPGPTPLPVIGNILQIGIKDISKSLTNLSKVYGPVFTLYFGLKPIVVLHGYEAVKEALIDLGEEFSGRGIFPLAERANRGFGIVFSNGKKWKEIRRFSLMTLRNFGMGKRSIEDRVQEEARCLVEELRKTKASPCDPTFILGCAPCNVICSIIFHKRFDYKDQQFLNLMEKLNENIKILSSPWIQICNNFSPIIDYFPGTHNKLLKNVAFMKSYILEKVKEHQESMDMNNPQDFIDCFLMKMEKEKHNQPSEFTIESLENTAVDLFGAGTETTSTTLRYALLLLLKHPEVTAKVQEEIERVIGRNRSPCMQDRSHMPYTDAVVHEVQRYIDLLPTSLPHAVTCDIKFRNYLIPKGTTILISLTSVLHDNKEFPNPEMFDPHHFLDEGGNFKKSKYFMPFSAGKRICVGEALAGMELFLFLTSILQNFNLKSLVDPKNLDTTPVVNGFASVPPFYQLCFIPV
Sequence of Ribosomal protein S6 kinase alpha-3 (P51812 whole entry): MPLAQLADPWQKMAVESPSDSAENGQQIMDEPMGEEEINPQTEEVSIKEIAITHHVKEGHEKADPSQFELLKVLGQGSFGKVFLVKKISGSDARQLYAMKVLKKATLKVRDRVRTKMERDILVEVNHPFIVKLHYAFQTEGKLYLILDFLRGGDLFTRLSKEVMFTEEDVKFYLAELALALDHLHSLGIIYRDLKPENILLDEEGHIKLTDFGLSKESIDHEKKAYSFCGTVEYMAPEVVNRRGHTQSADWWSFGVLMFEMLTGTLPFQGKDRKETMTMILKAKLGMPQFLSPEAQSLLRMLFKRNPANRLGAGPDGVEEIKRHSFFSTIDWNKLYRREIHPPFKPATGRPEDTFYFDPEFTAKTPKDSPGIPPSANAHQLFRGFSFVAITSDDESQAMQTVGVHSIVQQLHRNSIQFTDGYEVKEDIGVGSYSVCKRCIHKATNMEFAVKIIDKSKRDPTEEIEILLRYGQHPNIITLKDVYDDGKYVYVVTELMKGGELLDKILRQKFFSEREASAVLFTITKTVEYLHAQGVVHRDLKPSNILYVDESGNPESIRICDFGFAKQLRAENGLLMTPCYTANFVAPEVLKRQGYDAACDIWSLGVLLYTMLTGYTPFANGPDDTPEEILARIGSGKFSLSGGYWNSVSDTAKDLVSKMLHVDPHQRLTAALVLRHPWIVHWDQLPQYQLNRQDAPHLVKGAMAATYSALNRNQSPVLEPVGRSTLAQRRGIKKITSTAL
Sequence of Cytochrome P450 3A4 (P08684 whole entry): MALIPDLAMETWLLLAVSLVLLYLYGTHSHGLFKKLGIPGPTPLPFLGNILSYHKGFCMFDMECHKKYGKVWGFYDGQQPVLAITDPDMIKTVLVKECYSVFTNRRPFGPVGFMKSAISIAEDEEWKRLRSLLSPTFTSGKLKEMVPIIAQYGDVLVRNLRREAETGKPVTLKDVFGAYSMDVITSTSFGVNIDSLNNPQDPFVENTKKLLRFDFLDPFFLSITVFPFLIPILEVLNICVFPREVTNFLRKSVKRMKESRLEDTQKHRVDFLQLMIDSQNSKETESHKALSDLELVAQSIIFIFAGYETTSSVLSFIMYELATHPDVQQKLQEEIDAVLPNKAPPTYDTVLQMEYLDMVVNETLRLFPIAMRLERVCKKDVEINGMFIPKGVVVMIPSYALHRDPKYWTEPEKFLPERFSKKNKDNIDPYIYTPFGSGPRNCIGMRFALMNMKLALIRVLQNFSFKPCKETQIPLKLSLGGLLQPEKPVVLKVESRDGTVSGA
Sequence of Voltage-gated inwardly rectifying potassium channel KCNH2 (Q12809 whole entry): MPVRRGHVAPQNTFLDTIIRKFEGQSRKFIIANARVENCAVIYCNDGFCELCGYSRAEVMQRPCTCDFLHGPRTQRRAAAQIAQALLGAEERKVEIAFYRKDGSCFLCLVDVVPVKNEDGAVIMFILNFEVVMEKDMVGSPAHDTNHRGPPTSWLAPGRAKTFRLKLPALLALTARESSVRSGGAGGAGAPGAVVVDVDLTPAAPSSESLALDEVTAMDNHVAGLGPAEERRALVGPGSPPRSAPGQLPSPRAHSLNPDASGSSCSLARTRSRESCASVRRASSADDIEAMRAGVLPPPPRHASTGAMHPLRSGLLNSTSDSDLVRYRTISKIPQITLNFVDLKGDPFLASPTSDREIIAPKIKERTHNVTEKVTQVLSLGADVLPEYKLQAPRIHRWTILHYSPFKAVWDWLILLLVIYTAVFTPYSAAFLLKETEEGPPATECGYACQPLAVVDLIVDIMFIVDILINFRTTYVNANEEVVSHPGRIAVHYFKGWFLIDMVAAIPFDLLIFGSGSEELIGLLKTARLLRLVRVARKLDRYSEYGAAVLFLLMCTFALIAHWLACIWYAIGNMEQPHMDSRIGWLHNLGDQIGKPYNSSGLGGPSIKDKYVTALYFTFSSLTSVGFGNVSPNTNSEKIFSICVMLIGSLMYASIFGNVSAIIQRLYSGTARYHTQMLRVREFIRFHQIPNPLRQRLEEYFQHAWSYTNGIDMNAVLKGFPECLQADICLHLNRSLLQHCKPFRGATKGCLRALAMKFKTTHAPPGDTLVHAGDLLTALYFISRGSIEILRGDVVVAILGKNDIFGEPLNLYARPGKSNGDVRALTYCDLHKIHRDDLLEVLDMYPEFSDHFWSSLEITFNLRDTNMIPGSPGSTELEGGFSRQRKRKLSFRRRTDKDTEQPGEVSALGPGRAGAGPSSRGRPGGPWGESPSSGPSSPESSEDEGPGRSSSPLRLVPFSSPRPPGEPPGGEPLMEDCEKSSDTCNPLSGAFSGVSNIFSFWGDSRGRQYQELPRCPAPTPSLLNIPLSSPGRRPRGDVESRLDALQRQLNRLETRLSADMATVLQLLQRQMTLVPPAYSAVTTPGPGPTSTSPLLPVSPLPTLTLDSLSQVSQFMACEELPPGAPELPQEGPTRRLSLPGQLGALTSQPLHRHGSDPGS
Sequence of Serine/threonine-protein kinase TAO1 (Q7L7X3 whole entry): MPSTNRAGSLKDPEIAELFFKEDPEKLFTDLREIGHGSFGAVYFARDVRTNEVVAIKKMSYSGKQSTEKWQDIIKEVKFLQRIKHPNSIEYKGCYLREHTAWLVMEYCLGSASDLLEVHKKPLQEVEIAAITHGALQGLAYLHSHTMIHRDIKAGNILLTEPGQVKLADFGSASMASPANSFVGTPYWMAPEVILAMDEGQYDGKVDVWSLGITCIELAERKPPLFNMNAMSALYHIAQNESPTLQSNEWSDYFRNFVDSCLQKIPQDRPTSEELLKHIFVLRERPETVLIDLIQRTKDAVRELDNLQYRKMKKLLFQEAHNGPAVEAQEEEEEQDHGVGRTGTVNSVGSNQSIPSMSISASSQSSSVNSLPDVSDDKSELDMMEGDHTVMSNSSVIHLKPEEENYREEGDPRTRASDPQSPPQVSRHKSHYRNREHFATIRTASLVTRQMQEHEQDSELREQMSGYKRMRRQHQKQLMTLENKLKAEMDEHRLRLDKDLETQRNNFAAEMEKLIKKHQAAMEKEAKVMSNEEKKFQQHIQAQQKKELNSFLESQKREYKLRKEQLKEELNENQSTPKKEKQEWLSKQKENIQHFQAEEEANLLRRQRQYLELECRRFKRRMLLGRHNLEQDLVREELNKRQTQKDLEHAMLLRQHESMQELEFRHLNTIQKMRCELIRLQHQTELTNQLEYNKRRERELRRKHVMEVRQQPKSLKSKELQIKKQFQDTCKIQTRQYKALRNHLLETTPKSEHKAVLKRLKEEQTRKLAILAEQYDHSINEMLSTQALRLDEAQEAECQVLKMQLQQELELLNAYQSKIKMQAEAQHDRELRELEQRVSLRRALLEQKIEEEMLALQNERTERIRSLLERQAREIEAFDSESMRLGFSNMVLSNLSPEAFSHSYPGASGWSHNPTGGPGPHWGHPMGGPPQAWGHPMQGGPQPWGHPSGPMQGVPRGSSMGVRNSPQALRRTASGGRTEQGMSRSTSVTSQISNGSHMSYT
Sequence of Homeodomain-interacting protein kinase 4 (Homo sapiens) (Q8NE63 whole entry): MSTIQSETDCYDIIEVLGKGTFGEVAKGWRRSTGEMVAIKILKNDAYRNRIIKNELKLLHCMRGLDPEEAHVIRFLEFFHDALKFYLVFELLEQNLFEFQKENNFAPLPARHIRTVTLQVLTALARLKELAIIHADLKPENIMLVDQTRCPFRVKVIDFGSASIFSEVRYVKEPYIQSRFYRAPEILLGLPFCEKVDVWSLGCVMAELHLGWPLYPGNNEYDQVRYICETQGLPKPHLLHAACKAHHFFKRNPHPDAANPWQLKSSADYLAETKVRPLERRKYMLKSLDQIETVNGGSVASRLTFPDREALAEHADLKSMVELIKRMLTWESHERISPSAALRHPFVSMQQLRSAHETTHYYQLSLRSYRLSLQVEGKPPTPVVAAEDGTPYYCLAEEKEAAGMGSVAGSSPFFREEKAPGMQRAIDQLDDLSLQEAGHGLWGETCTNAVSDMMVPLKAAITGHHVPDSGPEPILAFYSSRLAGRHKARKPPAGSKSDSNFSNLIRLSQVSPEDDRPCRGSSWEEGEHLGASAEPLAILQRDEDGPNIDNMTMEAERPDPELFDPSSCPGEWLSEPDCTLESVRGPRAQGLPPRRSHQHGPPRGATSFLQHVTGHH

fraction unbound [1]: 0.036
Cmax [2]: 1.69 µg/mL
Cmax [3]: 0.4 µg/mL
Cmax [4]: 0.355 µg/mL
Vd [5]: 1.7 L/kg
Kd [6]: 0.00018 µM
AUC(0-t) [7]: 0.938 µg·h/mL
half-life [8]: 2 h
AUC(0-t) [10]: 0.415 µg·h/mL
AUC(0-t) [11]: 0.554 µg·h/mL
half-life [12]: 2.8 h
CLint scaled [13]: 2.69 L/h/kg
IC50 [14]: 0.146 µM
residual activity [15]: 9.4%
CLint scaled [17]: 1.18 L/h/kg
IC50 (Cytochrome P450 2C9): 41.9 µM
concentration at 0.5 h [18]: 2240 ng/g
Vd [19]: 1.7 L/kg
Cmax [20]: 0.165 µg/mL
concentration at 8 h [21]: 0.0035 µg/mL
half-life [22]: > 4.82 h
IC50 (CDK4/Cyclin D3): 0.0131 µM
clearance [23]: 0.072 L/h/kg
half-life [24]: 4.3 h
CLint scaled [25]: 5.06 L/h/kg
Cmax [26]: 6.62 µg/mL
bioavailability [27]: 78.7%
half-life [29]: 7.8 h
IC50 [31]: 0.546 µM
residual activity [32]: 0.8%
residual activity [33]: 2.7%
concentration at 2 h [35]: 3230 ng/g
IC50 (Cytochrome P450 3A4): 5.2 µM
IC50 [36]: 0.291 µM
half-life [37]: 1.2 h
half-life [38]: 3.4 h
AUC(0-t) [41]: 1.72 µg·h/mL
clearance [43]: 3.16 L/h/kg
AUC(0-t) [45]: 15.3 µg·h/mL
Cmax [46]: 0.58 µg/mL
fraction unbound [47]: 0.043
Compound: CN1CC(F)(F)CCN(C)[C@H]2CC[C@@H](C2)Nc2ncc(C(F)(F)F)c(n2)-c2c[nH]c3c(P(C)(C)=O)c(ccc23)C1=O
inhibition in vivo at 2 mg/kg (OVCAR-3 [9]): 110%
Activity (Mus musculus): Dose-dependent-effect
AUC(0-t) [16]: 0.812 µg·h/mL
inhibition in vivo at 10 mg/kg (HCC70 [28]): 175%
AUC(0-t) [30]: 0.084 µg·h/mL
IC50 [34]: 9.94 µM
half-life [39]: 1.7 h
Activity [40]: Non-toxic
inhibition in vivo at 1 mg/kg (HCC70 [42]): 35.5%
inhibition in vivo at 10 mg/kg (OVCAR-3 [44]): 111%
